According to patent publication US20240067632A1, “WEE1 Degrading Compounds and Uses Thereof” (Bristol-Myers Squibb Company, priority 2022, published 2024):
Read-outs that look alike come from different tables or passages of the source.

Assays:
MKN45 cells = assay: MKN45 cell proliferation assay (Cell-Titer-Glo, 120 h); format: cell-based; conditions: for EC50: Homo sapiens, MKN-45, 120 h, Cell-Titer-Glo, read-out: MKN45 Cell Prolif. 120 hr (EC50); for MKN45 Cell Prolif. 120 hr (Ymin-Obs): minimal percent of DMSO control observed in the concentrations tested
Procedure, shortened: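 Growth inhibition was read as blank-corrected Cell-Titer-Glo luminescence expressed as percent DMSO control after 120 h at 37 C, 400 cells/well. Compounds tested in triplicate as 10-point half-log series from 1 or 10 uM, 0.1% DMSO; four-parameter fit gave EC50, and lowest observed percent control was reported as Ymin-obs.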

WEE1 = target: T1, WEE1 (Homo sapiens, UniProt P30291+Q96SW2); assay: WEE1-ePL degradation assay (LentiX-WEE1-ePL-GSPT1-ND cells, InCELL Hunter luminescence, 4 h); format: cell-based; conditions: 293T-LentiX WEE1-ePL cells; for DC50: read-out: 293T-LentiX WEE1-ePL Degradation 4 hr (EC50)
T1 construct: C-terminal ePL-tagged (DiscoverX, Fremont, CA) full-length WEE1 expression construct; expressed in transfected cells; host or cells: LentiX-HEK293T (Invitrogen), lentiviral transduction; co-expressing GSPT1-GN (G576N, lacking the first 158 amino acids)
Procedure, shortened: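 Degradation EC50 was fitted by a four-parameter logistic model, with the upper limit taken from DMSO wells. Luminescence was read with InCELL Hunter reagent after 30 min at room temperature, following a 4 h, 37° C exposure of 2500 cells/well. Cells were LentiX-HEK293T carrying ePL-tagged full-length WEE1, dosed in 10 points (3-fold) from 1 or 10 uM.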

[1] = lower limit of the fit (0 = luciferase inhibitor, Ymax = DMSO control)
[2] = lower limit of the fit (Ymin=0 luciferase inhibitor, Ymax DMSO control)

Structure (SMILES) | EC50 (MKN45 cells; growth inhibition) [nM] | MKN45 Cell Prolif. 120 hr (Ymin-Obs) (MKN45 cells) | 293T-LentiX WEE1-ePL Degradation 4 hr (Ymin) (WEE1; [1]) | DC50 (WEE1) [nM] | EC50 (MKN45 cells) [nM] | 293T-LentiX WEE1-ePL Degradation 4 hr (Ymin) (WEE1; [2])
CNc1ccc2cc(CN3CC[C@H](Oc4ccc5c(c4)CN(C4CCC(=O)NC4=O)C5=O)C3)ncc2c1 (stereo partly drawn) [3-(5-{[(3S)-1-{[7-(methylamino)isoquinolin-3-yl]methyl}pyrrolidin-3-yl]oxy}-1-oxo-2,3-dihydro-1H-isoindol-2-yl)piperidine-2,6-dione] | 42.1 | 12.46 | 32 | 9.01 | – | –
O=C1CCC(N2Cc3cc(O[C@H]4CCN(Cc5cc6ccc(N7CCOCC7)cc6cn5)C4)ccc3C2=O)C(=O)N1 (stereo partly drawn) [3-(5-{[(3S)-1-{[7-(morpholin-4-yl)isoquinolin-3-yl]methyl}pyrrolidin-3-yl]oxy}-1-oxo-2,3-dihydro-1H-isoindol-2-yl)piperidine-2,6-dione] | 3.17 | 6.72 | 36 | 3.82 | – | –
O=C1CCC(N2Cc3cc(O[C@H]4CCN(Cc5cc6ccc(C7CCOCC7)cc6cn5)C4)ccc3C2=O)C(=O)N1 (stereo partly drawn) [3-(5-{[(3S)-1-{[7-(oxan-4-yl)isoquinolin-3-yl]methyl}pyrrolidin-3-yl]oxy}-1-oxo-2,3-dihydro-1H-isoindol-2-yl)piperidine-2,6-dione] | 2.09 | 8.822 | 29.75 | 1.46 | – | –
O=C1CCC(N2Cc3cc(O[C@H]4CCN(Cc5cc(F)c6nc(C7CCOCC7)ccc6c5)C4)ccc3C2=O)C(=O)N1 (stereo partly drawn) [3-(5-{[(3S)-1-{[8-fluoro-2-(oxan-4-yl)quinolin-6-yl]methyl}pyrrolidin-3-yl]oxy}-1-oxo-2,3-dihydro-1H-isoindol-2-yl)piperidine-2,6-dione] | 1.09 | 7.098 | 28 | 1.24 | – | –
C[C@@H]1CN(Cc2ccc3nc([C@@H]4CCOC(C)(C)C4)ccc3c2)C[C@H]1Oc1ccc2c(c1)CN(C1CCC(=O)NC1=O)C2=O (stereo partly drawn) [3-(5-{[(3S,4R)-1-({2-[(4R)-2,2-dimethyloxan-4-yl]quinolin-6-yl}methyl)-4-methylpyrrolidin-3-yl]oxy}-1-oxo-2,3-dihydro-1H-isoindol-2-yl) piperidine-2,6-dione] | 4.65 | 9.178 | 27.43 | 4.25 | – | –
C[C@@H]1CN(Cc2ccc3nc([C@H]4CCOC(C)(C)C4)ccc3c2)C[C@H]1Oc1ccc2c(c1)CN(C1CCC(=O)NC1=O)C2=O (stereo partly drawn) [3-(5-{[(3S,4R)-1-({2-[(4S)-2,2-dimethyloxan-4-yl]quinolin-6-yl}methyl)-4-methylpyrrolidin-3-yl]oxy}-1-oxo-2,3-dihydro-1H-isoindol-2-yl)piperidine-2,6-dione] | 0.918 | 8.183 | 24.37 | 1.94 | – | –
C[C@@H]1CN(Cc2cc(F)c3nc([C@H]4CCOC4)ccc3c2)C[C@H]1Oc1ccc2c(c1)CN(C1CCC(=O)NC1=O)C2=O (stereo partly drawn) [3-(5-{[(3S,4R)-1-({8-fluoro-2-[(3R)-oxolan-3-yl]quinolin-6-yl}methyl)-4-methylpyrrolidin-3-yl]oxy}-1-oxo-2,3-dihydro-1H-isoindol-2-yl)piperidine-2,6-dione] | – | 8.038 | – | 1.56 | 1.3 | 30.53
O=C1CCC(N2Cc3cc(O[C@@H]4CN(Cc5ccc6nc(C7CCOCC7)ccc6c5)C[C@H]4C(F)(F)F)ccc3C2=O)C(=O)N1 (stereo partly drawn) [3-(5-{[(3S,4R)-1-{[2-(oxan-4-yl)quinolin-6-yl]methyl}-4-(trifluoromethyl)pyrrolidin-3-yl]oxy}-1-oxo-2,3-dihydro-1H-isoindol-2-yl)piperidine-2,6-dione] | – | 28.55 | – | 13.1 | 26.8 | 35.15
C[C@@H]1CN(Cc2cc(F)c3nc(C4CCOCC4)ccc3c2)C[C@H]1Oc1ccc2c(c1)CN(C1CCC(=O)NC1=O)C2=O (stereo partly drawn) [3-(5-{[(3S,4R)-1-{[8-fluoro-2-(oxan-4-yl)quinolin-6-yl]methyl}-4-methylpyrrolidin-3-yl]oxy}-1-oxo-2,3-dihydro-1H-isoindol-2-yl)piperidine-2,6-dione] | – | 7.781 | – | 1.13 | 1.49 | 27.42
C[C@@H]1CN(Cc2ccc3nc([C@H]4CCOC4)ccc3c2)C[C@H]1Oc1ccc2c(c1)CN(C1CCC(=O)NC1=O)C2=O (stereo partly drawn) [3-(5-{[(3S,4R)-4-methyl-1-({2-[(3R)-oxolan-3-yl]quinolin-6-yl}methyl)pyrrolidin-3-yl]oxy}-1-oxo-2,3-dihydro-1H-isoindol-2-yl)piperidine-2,6-dione] | – | 10.26 | – | 1.41 | 2.32 | 33.41
C[C@@H]1CN(Cc2ccc3nc([C@@H]4CCOC4)ccc3c2)C[C@H]1Oc1ccc2c(c1)CN(C1CCC(=O)NC1=O)C2=O (stereo partly drawn) [3-(5-{[(3S,4R)-4-methyl-1-({2-[(3S)-oxolan-3-yl]quinolin-6-yl}methyl)pyrrolidin-3-yl]oxy}-1-oxo-2,3-dihydro-1H-isoindol-2-yl)piperidine-2,6-dione] | – | 10.01 | – | 1.95 | 3.67 | 33.96
Cc1ccc2cc(CN3C[C@@H](C)[C@H](Oc4ccc5c(c4)CN(C4CCC(=O)NC4=O)C5=O)C3)ccc2n1 (stereo partly drawn) [3-(5-{[(3S,4R)-4-methyl-1-[(2-methylquinolin-6-yl)methyl]pyrrolidin-3-yl]oxy}-1-oxo-2,3-dihydro-1H-isoindol-2-yl)piperidine-2,6-dione] | 17.5 | 12.51 | 33 | 3.1 | – | –
C[C@@H]1CN(Cc2ccc3nc(C4CCOCC4)ccc3c2)C[C@H]1Oc1ccc2c(c1)CN(C1CCC(=O)NC1=O)C2=O (stereo partly drawn) [3-(5-{[(3S,4R)-4-methyl-1-{[2-(oxan-4-yl)quinolin-6-yl]methyl}pyrrolidin-3-yl]oxy}-1-oxo-2,3-dihydro-1H-isoindol-2-yl)piperidine-2,6-dione] | 3.52 | 9.683 | 27.68 | 2.71 | – | –
COC[C@@H]1CN(Cc2ccc3nc(C4CCOCC4)ccc3c2)C[C@H]1Oc1ccc2c(c1)CN(C1CCC(=O)NC1=O)C2=O (stereo partly drawn) [3-(5-{[(3S,4S)-4-(methoxymethyl)-1-{[2-(oxan-4-yl)quinolin-6-yl]methyl}pyrrolidin-3-yl]oxy}-1-oxo-2,3-dihydro-1H-isoindol-2-yl)piperidine-2,6-dione] | – | 9.504 | – | 3.08 | 1.89 | 29.16
Cc1ccc2cc(CN3C[C@H](C)[C@H](Oc4ccc5c(c4)CN(C4CCC(=O)NC4=O)C5=O)C3)ccc2n1 (stereo partly drawn) [3-(5-{[(3S,4S)-4-methyl-1-[(2-methylquinolin-6-yl)methyl]pyrrolidin-3-yl]oxy}-1-oxo-2,3-dihydro-1H-isoindol-2-yl)piperidine-2,6-dione] | > 10000 | 85.96 | 88.5 | – | – | –
Cc1ccc2cc(CN3C[C@@H](Oc4ccc5c(c4)CN(C4CCC(=O)NC4=O)C5=O)C[C@H]3C)ccc2n1 (stereo partly drawn) [3-(5-{[(3S,5R)-5-methyl-1-[(2-methylquinolin-6-yl)methyl]pyrrolidin-3-yl]oxy}-1-oxo-2,3-dihydro-1H-isoindol-2-yl)piperidine-2,6-dione] | > 10000 | 80.29 | 88.5 | – | – | –
Cc1ccc2cc(CN3C[C@@H](Oc4ccc5c(c4)CN(C4CCC(=O)NC4=O)C5=O)C[C@@H]3C)ccc2n1 (stereo partly drawn) [3-(5-{[(3S,5S)-5-methyl-1-[(2-methylquinolin-6-yl)methyl]pyrrolidin-3-yl]oxy}-1-oxo-2,3-dihydro-1H-isoindol-2-yl)piperidine-2,6-dione] | > 10000 | 82.25 | 64.5 | 83.9 | – | –
